Legend:
[1] = NO˙ radical scavenging assay (Griess reaction); type: biochemical; conditions: 100 µL of test solution 1 mg/mL in DMSO, 150 min, pH 7.4
Procedure, shortened: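 Sodium nitroprusside solution (10 mM) was incubated 150 min at room temperature in PBS pH 7.4 with test solution (1 mg/mL DMSO stock). Nitrite was quantified by Griess reaction (sulfanilic acid, then naphthylethylenediamine, 30 min) at 546 nm. Percent scavenging was taken relative to control absorbance.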

[2] = Fe^2+ chelation assay; type: biochemical
[3] = Cyclic voltammetry of the compounds on graphite-based SPE; type: physicochemical; conditions: CV, 0.1 M HClO4, graphite-based SPE
Experimental: (§1) The evaluated compounds’ stock solutions used were prepared at a concentration of 5 mM. To test their redox properties, dilutions of 0.5 mM and 2 mM were prepared in 0.1 M HClO4 electrolyte (pH = 1.2). Screen-printed electrodes (SPEs; Metrohm DropSens, Oviedo, Spain) (planar electrodes) with graphite and gold working electrodes were used. Cyclic voltammetry (CV) and differential pulse voltammetry (DPV) were the electrochemical methods applied. The experimental conditions for each test are mentioned near the corresponding data (Appendix A).
In Figure 2, the cyclic voltammograms (CVs) for each of the compounds considered in this study, compared individually with the voltammogram obtained in the electrolyte (0.1 M HClO4), are presented. Thus, the oxidation/reduction peaks corresponding to the electrochemical transformations suffered by each compound can be observed in the potential range considered, in an acidic environment (low pH). From Figure 3, where the voltammograms of all eight compounds were presented together, a similarity is observed between 8a and 8b, and among the other compounds, whereas 5a and 5b can be noted as having the highest oxidation signals.

[4] = Ferric ions (Fe^3+) reducing antioxidant power by cyclic voltammetry
Experimental: as §1
The antioxidant properties were evaluated in terms of their activity against some free radicals, and other compounds reported in the literature, relevant for this purpose, such as: • ferric ions (Fe^3+)—used to test the reduction of the antioxidant character of the compounds; • DPPH˙ free radical– used to test the scavenging effect of the compounds on this radical; • hydrogen peroxide (H2O2)—used to test the scavenging effect of the synthesized molecules on this compound; • 2,2,6,6-tetramethylpiperidinyl-1-oxy (TEMPO)—used to test the scavenging effect of the synthesized molecules on this compound.
This method is based on the evaluation of the influence of the compound measured by the direct reduction of Fe[(CN)6]^3− to […]. This assay is based on the reduction of Fe^3+ to Fe^2+ due to the action of antioxidants. Based on the electrochemical behavior of the studied compounds, the interaction of Fe^3+ was followed by cyclic voltammetry (CV) via the possible changes of redox peaks characteristic for Fe^3+/Fe^2+ transition after the interaction with antioxidants (if any).
From the voltammogram of potassium ferricyanide it can be observed that the one-electron transfer process Fe^3+/Fe^2+ occurs at 0.247 V/ 0.150 V in acidic media (red) (Figure A1; Table A1).
Each compound presents its characteristic peaks (blue line in each figure).

[5] = TEMPO scavenging by differential pulse voltammetry; conditions: 2 mM TEMPO, one hour incubation, 0.1 M HClO4, DPV
Procedure, shortened: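 Scavenging of the stable nitroxide radical TEMPO by the compounds, measured as antioxidant activity by differential pulse voltammetry.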

[6] = tested on: C. albicans ATCC 102310; experiment: Antifungal activity, modified microdilution; type: cell-based; conditions: Candida albicans, ATCC102310; C. albicans ATCC 102310; read-out: MIC
[7] = compound 0.5 mM + Fe^3+/Fe^2+ (0.5 mM potassium ferricyanide), 1st Eox column
[8] = compound 0.5 mM + Fe^3+/Fe^2+ (0.5 mM potassium ferricyanide), 1st Iox column
[9] = compound + Fe^3+/Fe^2+, 1st Ered
[10] = compound + Fe^3+/Fe^2+, 1st Ired
[11] = compound + Fe^3+/Fe^2+, 2nd Eox
[12] = compound + Fe^3+/Fe^2+, 2nd Iox column
[13] = compound + Fe^3+/Fe^2+, 4th Eox column
[14] = compound + Fe^3+/Fe^2+, 4th Iox column
[15] = compound + Fe^3+/Fe^2+, 5th Eox
[16] = compound + Fe^3+/Fe^2+, 5th Iox column
[17] = compound alone 0.5 mM in 0.1 M HClO4, 2nd Eox
[18] = compound alone 0.5 mM in 0.1 M HClO4, 2nd Ered column
[19] = compound alone 0.5 mM in 0.1 M HClO4, 2nd Iox column
[20] = compound alone 0.5 mM in 0.1 M HClO4, 2nd Ired
[21] = compound alone 0.5 mM in 0.1 M HClO4, 3rd Eox column
[22] = compound alone 0.5 mM in 0.1 M HClO4, 3rd Iox column
[23] = compound alone 0.5 mM in 0.1 M HClO4, 4th Eox column
[24] = compound alone 0.5 mM in 0.1 M HClO4, 4th Iox column
[25] = compound alone 0.5 mM in 0.1 M HClO4, 5th Eox
[26] = compound alone 0.5 mM in 0.1 M HClO4, 5th Iox column

C/C(=N\Nc1nc(-c2ccc(O)c(O)c2)cs1)c1ccc(O)cc1O.Cl [Compound 8a, (E)-2-(1-(2,4-dihydroxyphenyl)ethylidene)-1-(4-(3,4-dihydroxyphenyl)thiazol-2-yl)hydrazin-1-ium chloride]
% of NO˙ Scavenged [1]: 32.72% | Chelation Capacity (%), ferrous ions ([2]; 50 µg/mL): 7.73% | Chelation Capacity (%), ferrous ions ([2]; 100 µg/mL): 12.28% | Chelation Capacity (%), ferrous ions ([2]; 150 µg/mL): 17.60% | Chelation Capacity (%), ferrous ions ([2]; 200 µg/mL): 22.64% | Eox (V) ([3]; 1st oxidation peak): 0.174 V | Iox (μA) ([3]; 1st oxidation peak): 21.51 μA | Eox (V) ([3]; 2nd oxidation peak): 0.386 V | Iox (μA) ([3]; 2nd oxidation peak): 37.08 μA | Ered (V) ([3]; 2nd reduction peak): 0.101 V | Ired (μA) ([3]; 2nd reduction peak): −4.79 μA | Eox (V) ([3]; 3rd oxidation peak): 0.520 V | Iox (μA) ([3]; 3rd oxidation peak): 4.87 μA | Ered (V) ([3]; 3rd reduction peak): 0.335 V | Ired (μA) ([3]; 3rd reduction peak): −38.91 μA | scavenging effect on ferric ion ([4]; 0.5 mM ferricyanide + 0.5 mM compound): highest scavenging effect | Eox (V) [4, 7]: 0.072 V | Iox (μA) [4, 8]: 0.17 μA | Ered (V) [4, 9]: 0.054 V | Ired (μA) [4, 10]: −8.37 μA | Eox (V) [4, 11]: 0.186 V | Iox (μA) [4, 12]: 17.73 μA | Eox (V) [4, 13]: 0.452 V | Iox (μA) [4, 14]: 12.93 μA | Eox (V) [4, 15]: 0.87 V | Iox (μA) [4, 16]: 18.64 μA | Eox (V) [4, 17]: 0.195 V | Ered (V) [4, 18]: 0.296 V | Iox (μA) [4, 19]: 2.32 μA | Ired (μA) [4, 20]: −5.09 μA | Eox (V) [4, 21]: 0.330 V | Iox (μA) [4, 22]: 7.42 μA | Eox (V) [4, 23]: 0.460 V | Iox (μA) [4, 24]: 7.70 μA | Eox (V) [4, 25]: 0.985 V | Iox (μA) [4, 26]: 3.45 μA | oxidation signal for TEMPO after incubation with the compound [5]: both the signal shift to higher oxidation potentials and its decrease | MIC [6]: > 100 µg/mL

Cl.Oc1ccc(/C=N/Nc2nc(-c3ccc(O)c(O)c3)cs2)c(O)c1 [Compound 8b, (E)-2-(2,4-dihydroxybenzylidene)-1-(4-(3,4-dihydroxyphenyl)thiazol-2-yl)hydrazin-1-ium chloride]
% of NO˙ Scavenged [1]: 46.30% | Chelation Capacity (%), ferrous ions ([2]; 50 µg/mL): 10.74% | Chelation Capacity (%), ferrous ions ([2]; 100 µg/mL): 18.15% | Chelation Capacity (%), ferrous ions ([2]; 150 µg/mL): 25.06% | Chelation Capacity (%), ferrous ions ([2]; 200 µg/mL): 33.38% | Eox (V) ([3]; 1st oxidation peak): 0.166 V | Iox (μA) ([3]; 1st oxidation peak): 2.19 μA | Eox (V) ([3]; 2nd oxidation peak): 0.508 V | Iox (μA) ([3]; 2nd oxidation peak): 40.99 μA | Ered (V) ([3]; 3rd reduction peak): 0.325 V | Ired (μA) ([3]; 3rd reduction peak): −40.37 μA | Eox (V) [4, 7]: 0.083 V | Iox (μA) [4, 8]: 0.34 μA | Ered (V) [4, 9]: 0.079 V | Ired (μA) [4, 10]: −8.01 μA | Eox (V) [4, 11]: 0.227 V | Ered (V) ([4]; compound + Fe^3+/Fe^2+, 2nd Ered column): 0.279 V | Iox (μA) [4, 12]: 28.09 μA | Ired (μA) ([4]; compound + Fe^3+/Fe^2+, 2nd Ired): −2.81 μA | Eox (V) [4, 13]: 0.449 V | Iox (μA) [4, 14]: 28.48 μA | Eox (V) [4, 15]: 0.79 V | Iox (μA) [4, 16]: 15.19 μA | Eox (V) [4, 17]: 0.249 V | Ered (V) [4, 18]: 0.303 V | Iox (μA) [4, 19]: 1.02 μA | Ired (μA) [4, 20]: −1.97 μA | Eox (V) [4, 21]: 0.349 V | Iox (μA) [4, 22]: 1.76 μA | Eox (V) [4, 23]: 0.450 V | Iox (μA) [4, 24]: 2.29 μA | Eox (V) [4, 25]: 0.989 V | Iox (μA) [4, 26]: 1.17 μA | oxidation signal for TEMPO after incubation with the compound [5]: both the signal shift to higher oxidation potentials and its decrease | MIC [6]: > 100 µg/mL

Reference: paper PMC8615111, “Phenolic Thiazoles with Antioxidant and Antiradical Activity. Synthesis, In Vitro Evaluation, Toxicity, Electrochemical Behavior, Quantum Studies and Antimicrobial Screening” (Antioxidants, 2021)
